Format in all cases: cell-based
One test has as its system MKN45. The test is described as follows: Growth inhibition of gastric cancer cells MKN45 (CCK-8). Conditions: Homo sapiens, MKN-45, half inhibitory concentration, 72 hours. As to the method: (§1) Inoculate gastric cancer cells (SNU5 or MKN45) into a 96 well plate at a concentration of […], with 100 μl added to each well. Incubate for 30 minutes. Observe the cell status under a microscope. Prepare compounds, weigh a certain amount of the series compounds or reference drug cabozantinib of this patent, first prepare a high concentration mother liquor with pure DMSO, and use gradient dilution method to prepare a concentration of 200 μM, 60 μM, 20 μM, 6 μM, 2 μM, 600 nM, 200 nM, 0 nM drug solution, shake to make it fully mixed. The control group was prepared with cabozantinib using the same solvent and method.
(§2) After preparation, add 1 μl of drug solution to each well of the 96 well plate, and then add 100 μl of culture medium. Repeat each dose three times. Gently shake to allow the cells and medication to come into full contact and incubate in the incubator for 72 hours. 72 hours later, remove and color with CCK-8 reagent kit. Add 20 μl of CCK-8 reagent to each well, gently shake well, and incubate in the incubator for 1 hour. After 1 hour, remove and measure the absorbance of each well using an enzyme-linked immunosorbent assay (ELISA) reader at a wavelength of 450 nm.
(§3) According to the formula: Cell growth inhibition rate=[1−(absorbance of experimental group absorbance of culture medium control group)/(absorbance of blank control group−absorbance of culture medium control group)]×100%. It can be concluded that the compound has the ability to inhibit the growth of gastric cancer cells at the current dose and time.
(§4) Draw a graph based on the gradient of concentration and use GraphPad Prism 9 software (GraphPad Software, La Jolla, CA) to calculate the maximum inhibitory concentration (IC50) at 50%.
(§5) Referring to steps 1 and 2 of this embodiment, the inhibitory effect of the compound of the present invention on the growth of cancer cells and the degradation effect of target proteins were measured, and the following results were obtained (see Table 2 below).
(§6) The growth inhibitory effects of the compound of the present invention on tumor cell lines MKN45 and SNU5 were measured. The activity is expressed as half inhibitory concentration (C50). The results are shown in Table 2 below; When the half inhibitory concentration is less than or equal to 100 nM, the compound activity is labeled as “++++”; When the half inhibitory concentration is greater than 100 nM and less than 500 nM, the compound activity is labeled as […] and less than 1000 nM, the compound activity is labeled as “++”; When the half inhibitory concentration is greater than 1000 nM and less than 3000 nM, the compound activity is marked as “+”; When the half inhibitory concentration is greater than 3000 nM, the compound activity is marked as […]

The test system of a further test is SNU5. Description: Growth inhibition of gastric cancer cells SNU5 (CCK-8). Conditions: Homo sapiens, SNU-5, half inhibitory concentration, 72 hours. As to the method:
as §1, §2, §3, §4, §5, §6

The target in a further test is DDR1 (Homo sapiens, UniProt Q08345). Description: Degradation of DDR1 in tumor cell MKN45 (Western blot). On the set-up: The degradation activity of the compounds against DDR1 in the MKN45 cell line; endogenous in cells; host or cells: MKN45. The conditions noted are these: MKN-45, maximum degradation percentage, MKN45 cells, 24 hours. As to the method:
Western blot experiment: Take gastric cancer cells (MKN45) and inoculate them into a 6-well plate at a concentration of […], adding 2 ml to each well and incubating for 24 hours.
The next day, observe the cells under a microscope to confirm their status. Prepare compounds, weigh a certain amount of the series compounds or reference drug cabozantinib from this patent, first prepare a high concentration mother liquor with pure DMSO, and use gradient dilution method to prepare compound concentrations of 2 mM, 200 μM, 100 μM, 20 μM, 2 μM, 200 nM, and 0 nM. The final concentration of DMSO is 0.5%. Shake to thoroughly mix. Add 10 μl of solution to each well. After incubation for 24 hours, remove the cells and use a pipette to aspirate the suspended cells into a 1.5 ml centrifuge tube. Centrifuge at 5000 rpm for 10 minutes to precipitate the cells. Carefully remove the cell precipitate from the culture medium, add 1 ml of PBS and shake slightly. After repeated cleaning for 3 times, dry the residue. Add 150 μl of RIPA lysate pre mixed with 1% PMSF, blow to allow the lysate to fully contact the cells, and incubate on ice for 10 minutes. Centrifuge at 12000 rpm for 10 minutes, extract the supernatant, use the BCA protein quantification kit to determine and homogenize the sample loading.
Mix BCA-A in a 50:1 ratio Prepare working solution with B solution, dilute the sample by 5 times, then pipette 20 μl onto a 96 well ELISA plate. Add 200 μl of pre mixed BCA working solution and incubate at 37° C. for 20 minutes. Measure the A562 nm absorbance value using an ELISA reader and substitute it into the protein standard curve formula to obtain the sample concentration. After calculating the required volume for loading […] of sample, divide the sample into 1.5 ml centrifuge tubes. Add 10 μl of sample buffer to each tube and mix well. Heat in a 95° C. metal bath for 5 minutes to denature the protein.
Take 4-20% gradient pre adhesive and fix it on the adhesive rack. Add electrophoresis solution to the slot and remove the comb, Marker and protein samples were loaded, and after 30 minutes of electrophoresis at 80V, the voltage was adjusted to 120V for electrophoresis, The marker band stops electrophoresis at the forefront of the gel. Take out the adhesive block and cut it to the appropriate size, The PVDF membrane was cut and activated in methanol, and after activation, the PVDF membrane was equilibrated in a membrane transfer equilibrium solution for 1 minute. Using sponge pads The sequence of PVDF film, adhesive, and sponge pad is placed in the splint and placed in the eBlot equipment for rapid wet rotation. Remove the membrane and seal it in 5% skim milk powder dissolved in 1×TBST for 1 hour. Cut the membrane according to the molecular weight of the target protein and internal reference protein, and place it in primary antibody diluted with 1×TBST. Shake overnight at 4° C.
The next day, transfer the band to 1×TBST for 3 washes, then add a specific dilution of the secondary antibody and shake it for 1.5 hours. Transfer the band again to 1×TBST for 3 washes, prepare ECL color solution, place the membrane in the imaging system, cover the surface with ECL color solution, and take photos of the membrane using the imaging system.
Using the SHST analysis system to analyze the results, measure the grayscale values of each band of the target protein and internal reference protein. Normalize the grayscale values of the target protein/corresponding lane GAPDH grayscale values, and perform quantitative analysis according to the protein amount=experimental group grayscale value/blank control group grayscale value.
The activity of the compound of the present invention in degrading DDR in tumor cell line MKN45 was measured. […]

Sequence of DDR1 (Q08345 19-913): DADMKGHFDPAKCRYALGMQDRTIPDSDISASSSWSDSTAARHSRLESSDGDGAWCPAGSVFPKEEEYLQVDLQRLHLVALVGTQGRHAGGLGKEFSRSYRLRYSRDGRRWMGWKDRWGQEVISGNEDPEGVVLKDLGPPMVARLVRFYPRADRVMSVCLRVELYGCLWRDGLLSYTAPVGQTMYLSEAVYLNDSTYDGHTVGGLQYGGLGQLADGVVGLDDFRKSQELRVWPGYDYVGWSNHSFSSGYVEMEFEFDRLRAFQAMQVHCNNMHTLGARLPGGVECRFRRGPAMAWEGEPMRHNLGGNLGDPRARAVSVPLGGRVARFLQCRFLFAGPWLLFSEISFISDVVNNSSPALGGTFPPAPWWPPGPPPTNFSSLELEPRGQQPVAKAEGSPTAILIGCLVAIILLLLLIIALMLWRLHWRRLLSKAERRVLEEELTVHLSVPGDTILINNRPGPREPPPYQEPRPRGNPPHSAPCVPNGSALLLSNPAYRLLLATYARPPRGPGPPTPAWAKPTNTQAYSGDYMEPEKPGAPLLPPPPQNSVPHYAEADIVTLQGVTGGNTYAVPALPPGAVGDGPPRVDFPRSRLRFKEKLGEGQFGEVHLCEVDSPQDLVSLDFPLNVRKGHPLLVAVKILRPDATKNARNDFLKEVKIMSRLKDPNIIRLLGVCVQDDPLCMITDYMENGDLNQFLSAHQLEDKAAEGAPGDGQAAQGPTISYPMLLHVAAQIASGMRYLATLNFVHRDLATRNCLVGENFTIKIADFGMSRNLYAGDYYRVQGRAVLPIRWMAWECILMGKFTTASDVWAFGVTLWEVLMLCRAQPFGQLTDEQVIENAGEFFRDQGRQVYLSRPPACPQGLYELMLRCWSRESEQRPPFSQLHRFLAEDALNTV

The IC50 is the concentration that inhibits the measured activity by half. Read a high IC50 as lower potency. Usually Dmax stands for the largest share of the target that was removed. The low end stands for a partial loss of target, the high end for a fuller loss of target. For the compound `COc1cc2c(Oc3ccc(NC(=O)C4(C(=O)Nc5ccc(F)cc5)CC4)cc3)ccnc2cc1NCC(=O)N1CCC(CN2CCN(c3ccc(N(C)C4CCC(=O)NC4=O)nc3F)CC2)CC1` (stereo not drawn) [TPD5773], the 50% inhibitory concentration (IC50) was 500 to 1000 nM in the test on MKN45 and 100 to 500 nM in the test on SNU5. In addition, the Dmax at DDR1 lay in the range of 65 to 75%.
Taken in the same sequence, the figures for `COc1cc2c(Oc3ccc(NC(=O)C4(C(=O)Nc5ccc(F)cc5)CC4)cc3)ccnc2cc1NCC(=O)N1CCC(CN2CCN(c3ccc(NC4CCC(=O)NC4=O)nc3F)CC2)CC1` (stereo not drawn) [TPD5774] were 100 to 500 nM, 500 to 1000 nM and greater than 85%.
Taken in the same sequence, the figures for `COc1cc2c(Oc3ccc(NC(=O)C4(C(=O)Nc5ccc(F)cc5)CC4)cc3)ccnc2cc1N1CCC(CN2CCN(CC(=O)Nc3cccc4c3CN(C3CCC(=O)NC3=O)C4=O)CC2)CC1` (stereo not drawn) [TPD5901] were no more than 100 nM, no more than 100 nM and greater than 85%.
For `COc1cc2c(Oc3ccc(NC(=O)C4(C(=O)Nc5ccc(F)cc5)CC4)cc3)ccnc2cc1N1CCC(CN2CCC(N3CCN(c4cccc5c4CN(C4CCC(=O)NC4=O)C5=O)CC3)CC2)CC1` (stereo not drawn) [TPD5907], the IC50 in the test with MKN45 and in the test with SNU5 was no more than 100 nM in each case. The compound also registered a Dmax at DDR1 greater than 85%.
Take `COc1cc2c(Oc3ccc(NC(=O)C4(C(=O)Nc5ccc(F)cc5)CC4)cc3)ccnc2cc1N1CCC(CN2CCN(CCCc3cccc4c3CN(C3CCC(=O)NC3=O)C4=O)CC2)CC1` (stereo not drawn) [TPD5937]: the IC50 in the test with MKN45 and with SNU5 was no more than 100 nM throughout. The Dmax on DDR1 lay within 65 to 75%.
For `COc1cc2c(Oc3ccc(NC(=O)C4(C(=O)Nc5ccc(F)cc5)CC4)cc3)ccnc2cc1N1CCC(CN2CCN(CCNc3cccc4c3C(=O)N(C3CCC(=O)NC3=O)C4=O)CC2)CC1` (stereo not drawn) [TPD5972], the IC50 with MKN45 and in the test with SNU5 was no more than 100 nM each time. On DDR1, the Dmax is greater than 85%.
On to `O=C1CCC(N2C(=O)c3ccc(N4CCN(CCC5CCN(CCNC(=O)c6ccc(-c7cnc8ncc(Cc9ccc%10ncccc%10c9)n8n7)cc6F)CC5)CC4)cc3C2=O)C(=O)N1` (stereo not drawn) [TPD7022], for which the IC50 in the test with MKN45 and with SNU5 was 100 to 500 nM in each case. The compound further came in with a Dmax at DDR1 of 65 to 75%.
As to `CNC(=O)c1ccc(-c2cnc3ncc(Cc4ccc5ncc(NC(=O)CN6CCC(CN7CCN(c8ccc9c(c8)C(=O)N(C8CCC(=O)NC8=O)C9=O)CC7)CC6)cc5c4)n3n2)cc1F` (stereo not drawn) [TPD7026], the IC50 with MKN45 and in the test with SNU5 was no more than 100 nM in each case. The Dmax on DDR1 fell in the range of 65 to 75%.
`Cc1ncsc1-c1ccc(CNC(=O)[C@@H]2C[C@@H](O)CN2C(=O)[C@@H](NC(=O)CN2CCN(CC3CCN(C(=O)c4ccc(-c5cnc6ncc(Cc7ccc8ncccc8c7)n6n5)cc4F)CC3)CC2)C(C)(C)C)cc1` [TPD9004]: the IC50 in the test with MKN45 is 100 to 500 nM; in the test on SNU5, no more than 100 nM. For the same compound, the Dmax on DDR1 fell in the range of 75 to 85%.
Taken in the same sequence, the figures for `CNC(=O)c1ccc(-c2cnc3ncc(Cc4ccc5ncc(C(=O)N6CCC(CN7CCN(CC(=O)N[C@H](C(=O)N8C[C@H](O)C[C@H]8C(=O)NCc8ccc(-c9scnc9C)cc8)C(C)(C)C)CC7)CC6)cc5c4)n3n2)cc1F` [TPD9006] were no more than 100 nM, 100 to 500 nM and 75 to 85%.
Taken in the same sequence, the figures for `Cc1ncsc1-c1ccc(CNC(=O)[C@@H]2C[C@@H](O)CN2C(=O)[C@@H](NC(=O)CCN2CCC(COc3cnc(-c4cccc(Cn5nc(-c6cccc(C#N)c6)ccc5=O)c4)nc3)CC2)C(C)(C)C)cc1` [TPD10001] were 500 to 1000 nM, 100 to 500 nM and 65 to 75%.
Taken in the same sequence, the figures for `N#Cc1cccc(-c2ccc(=O)n(Cc3cccc(-c4ncc(OCC5CCN(CCC(=O)Nc6cccc7c6CN(C6CCC(=O)NC6=O)C7=O)CC5)cn4)c3)n2)c1` (stereo not drawn) [TPD10013] were 1000 to 3000 nM, 500 to 1000 nM and 65 to 75%.
For the compound `C[C@@H](Oc1cc(-c2cnn(C3CCN(CCC(=O)Nc4cccc5c4CN(C4CCC(=O)NC4=O)C5=O)CC3)c2)cnc1N)c1c(Cl)ccc(F)c1Cl` (stereo partly drawn) [TPD10040], the IC50 in the test on MKN45 and in the test on SNU5 was no more than 100 nM throughout. Besides, the Dmax at DDR1 was in the range of 75 to 85%.
In the case of `C[C@@H](Oc1cc(-c2cnn(C3CCN(CCN4CCN(c5ccc6c(c5)C(=O)N(C5CCC(=O)NC5=O)C6=O)CC4)CC3)c2)cnc1N)c1c(Cl)ccc(F)c1Cl` (stereo partly drawn) [TPD10041], the IC50 with MKN45 is 500 to 1000 nM; in the test on SNU5, no more than 100 nM. This compound gave a Dmax at DDR1 greater than 85%.
Taken in the same sequence, the figures for `Cc1nc(CCOC2CCN(CCC(=O)Nc3cccc4c3CN(C3CCC(=O)NC3=O)C4=O)CC2)cc(Nc2ncc(C(=O)Nc3c(C)cccc3Cl)s2)n1` (stereo not drawn) [TPD10050] were 500 to 1000 nM, 100 to 500 nM and 75 to 85%.
Take `Cc1nc(CCN2CCC(CN3CCN(c4ccc5c(c4)C(=O)N(C4CCC(=O)NC4=O)C5=O)CC3)CC2)cc(Nc2ncc(C(=O)Nc3c(C)cccc3Cl)s2)n1` (stereo not drawn) [TPD10051]: the IC50 with MKN45 is no more than 100 nM; with SNU5, 500 to 1000 nM. The compound also gave a Dmax at DDR1 greater than 85%.
Taken in the same sequence, the figures for `COc1cc2c(Oc3ccc(NC(=O)C4(C(=O)Nc5ccc(F)cc5)CC4)cc3)ccnc2cc1N1CCC(CN2CCN(CCNc3nccc4c3CN(C3CCC(=O)NC3=O)C4=O)CC2)CC1` (stereo not drawn) [TPD12001] were no more than 100 nM, no more than 100 nM and 65 to 75%.
Taken in the same sequence, the figures for `COc1cc2c(Oc3ccc(NC(=O)C4(C(=O)Nc5ccc(F)cc5)CC4)cc3)ccnc2cc1N1CCC(CN2CCN(CCNc3cc4c(cn3)C(=O)N(C3CCC(=O)NC3=O)C4)CC2)CC1` (stereo not drawn) [TPD12003] were no more than 100 nM, no more than 100 nM and 75 to 85%.
As to `COc1cc2c(Oc3ccc(NC(=O)C4(C(=O)Nc5ccc(F)cc5)CC4)cc3)ccnc2cc1N1CCC(CN2CCN(CCNc3cc4c(cn3)CN(C3CCC(=O)NC3=O)C4=O)CC2)CC1` (stereo not drawn) [TPD12009], the IC50 in the test on MKN45 and with SNU5 was no more than 100 nM in each case. This compound also yielded a Dmax on DDR1 of 65 to 75%.

Source of the values: US20240374738A1, “BIFUNCTIONAL COMPOUND CAPABLE OF DEGRADING RECEPTOR TYROSINE KINASE AND APPLICATION THEREOF” (TAIBIDI PHARMACEUTICAL TECHNOLOGY (SHIJIAZHUANG) CO., LTD., priority 2023, published 2024).
